According to PubChem BioAssay (NCI):
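Cultured in 96-well plates, cells were exposed to test compound for 48 hours across five concentrations. GI50 is the concentration that inhibits growth by half. At the TGI there is no net growth.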

Tests used:
Experiment in all cases: NCI-60 cell line screen, 48 h
LOX IMVI melanoma = system: LOX IMVI melanoma
SK-MEL-5 melanoma = system: SK-MEL-5 melanoma
RXF 393 renal = system: RXF 393 renal
UO-31 renal = system: UO-31 renal
A498 renal = system: A498 renal
HCC-2998 colon = system: HCC-2998 colon
RPMI-8226 leukemia = system: RPMI-8226 leukemia
NCI-H522 lung = system: NCI-H522 lung
CCRF-CEM leukemia = system: CCRF-CEM leukemia
SK-MEL-28 melanoma = system: SK-MEL-28 melanoma
MOLT-4 leukemia = system: MOLT-4 leukemia
K-562 leukemia = system: K-562 leukemia
OVCAR-4 ovarian = system: OVCAR-4 ovarian
UACC-257 melanoma = system: UACC-257 melanoma
BT-549 breast = system: BT-549 breast
786-0 renal = system: 786-0 renal
DU-145 prostate = system: DU-145 prostate
HCT-116 colon = system: HCT-116 colon
UACC-62 melanoma = system: UACC-62 melanoma
SR leukemia = system: SR leukemia
NCI-H460 lung = system: NCI-H460 lung
M14 melanoma = system: M14 melanoma
MDA-MB-231 breast = system: MDA-MB-231 breast
OVCAR-5 ovarian = system: OVCAR-5 ovarian
SN12C renal = system: SN12C renal
NCI/ADR-RES ovarian = system: NCI/ADR-RES ovarian
HT29 colon = system: HT29 colon
HOP-92 NSCLC = system: HOP-92 NSCLC
SF-295 CNS = system: SF-295 CNS
SNB-75 CNS = system: SNB-75 CNS
MCF7 breast = system: MCF7 breast
NCI-H226 lung = system: NCI-H226 lung
HOP-62 NSCLC = system: HOP-62 NSCLC
COLO 205 colon = system: COLO 205 colon
HCT-15 colon = system: HCT-15 colon
TK-10 renal = system: TK-10 renal
SW-620 colon = system: SW-620 colon
SK-MEL-2 melanoma = system: SK-MEL-2 melanoma
SNB-19 CNS = system: SNB-19 CNS
MDA-MB-435 = system: MDA-MB-435
HL-60(TB) leukemia = system: HL-60(TB) leukemia
U251 CNS = system: U251 CNS
PC-3 prostate = system: PC-3 prostate
ACHN renal = system: ACHN renal
CAKI-1 renal = system: CAKI-1 renal
MALME-3M melanoma = system: MALME-3M melanoma
SK-OV-3 ovarian = system: SK-OV-3 ovarian
HS 578T breast = system: HS 578T breast
OVCAR-3 ovarian = system: OVCAR-3 ovarian
T-47D breast = system: T-47D breast
OVCAR-8 ovarian = system: OVCAR-8 ovarian
IGROV1 ovarian = system: IGROV1 ovarian
EKVX NSCLC = system: EKVX NSCLC
KM12 colon = system: KM12 colon
SF-539 CNS = system: SF-539 CNS
A549 NSCLC = system: A549 NSCLC
SF-268 CNS = system: SF-268 CNS

O=C(CSc1nc2sc3c(c2c(=O)n1-c1ccc(Cl)cc1)CCCC3)NNC(=O)Nc1cccc(C(F)(F)F)c1
GI50 (LOX IMVI melanoma): 1.68 µM
TGI (LOX IMVI melanoma): 3.33 µM
GI50 (SK-MEL-5 melanoma): 2.88 µM
TGI (SK-MEL-5 melanoma): 8.81 µM
GI50 (RXF 393 renal): 2.31 µM
TGI (RXF 393 renal): 6.48 µM
GI50 (UO-31 renal): 2.84 µM
TGI (UO-31 renal): 12.6 µM
GI50 (A498 renal): 1.96 µM
TGI (A498 renal): 4.85 µM
GI50 (HCC-2998 colon): 2.99 µM
TGI (HCC-2998 colon): 11.9 µM
GI50 (RPMI-8226 leukemia): 2.87 µM
TGI (RPMI-8226 leukemia): > 100 µM
GI50 (NCI-H522 lung): 1.81 µM
TGI (NCI-H522 lung): 4.51 µM
GI50 (CCRF-CEM leukemia): 3.53 µM
TGI (CCRF-CEM leukemia): > 100 µM
GI50 (SK-MEL-28 melanoma): 3.69 µM
TGI (SK-MEL-28 melanoma): 14 µM
GI50 (MOLT-4 leukemia): 2.9 µM
TGI (MOLT-4 leukemia): > 100 µM
GI50 (K-562 leukemia): 2.64 µM
TGI (K-562 leukemia): > 100 µM
GI50 (OVCAR-4 ovarian): 2.44 µM
TGI (OVCAR-4 ovarian): 6.78 µM
GI50 (UACC-257 melanoma): 2.36 µM
TGI (UACC-257 melanoma): 6.96 µM
GI50 (BT-549 breast): 2.02 µM
TGI (BT-549 breast): 5.9 µM
GI50 (786-0 renal): 2.7 µM
TGI (786-0 renal): 9.79 µM
GI50 (DU-145 prostate): 4.12 µM
TGI (DU-145 prostate): > 100 µM
GI50 (HCT-116 colon): 1.98 µM
TGI (HCT-116 colon): 4.01 µM
GI50 (UACC-62 melanoma): 2.38 µM
TGI (UACC-62 melanoma): 7.4 µM
GI50 (SR leukemia): 2.74 µM
TGI (SR leukemia): > 100 µM
GI50 (NCI-H460 lung): 3.12 µM
TGI (NCI-H460 lung): 10.5 µM
GI50 (M14 melanoma): 3.2 µM
TGI (M14 melanoma): 11.3 µM
GI50 (MDA-MB-231 breast): 2.76 µM
TGI (MDA-MB-231 breast): 8.65 µM
GI50 (OVCAR-5 ovarian): 4.21 µM
TGI (OVCAR-5 ovarian): 31 µM
GI50 (SN12C renal): 2.83 µM
TGI (SN12C renal): 8.44 µM
GI50 (NCI/ADR-RES ovarian): 3.12 µM
TGI (NCI/ADR-RES ovarian): 14 µM
GI50 (HT29 colon): 2.33 µM
TGI (HT29 colon): 5.85 µM
GI50 (HOP-92 NSCLC): 1.66 µM
TGI (HOP-92 NSCLC): 4.2 µM
GI50 (SF-295 CNS): 2.28 µM
TGI (SF-295 CNS): 6.16 µM
GI50 (SNB-75 CNS): 3.42 µM
TGI (SNB-75 CNS): 18.9 µM
GI50 (MCF7 breast): 2.4 µM
TGI (MCF7 breast): 10 µM
GI50 (NCI-H226 lung): 2.78 µM
TGI (NCI-H226 lung): 8.31 µM
GI50 (HOP-62 NSCLC): 3.3 µM
TGI (HOP-62 NSCLC): 13.5 µM
GI50 (COLO 205 colon): 1.92 µM
TGI (COLO 205 colon): 3.52 µM
GI50 (HCT-15 colon): 3.05 µM
TGI (HCT-15 colon): 11.5 µM
GI50 (TK-10 renal): 3.43 µM
TGI (TK-10 renal): 9.9 µM
GI50 (SW-620 colon): 3.49 µM
TGI (SW-620 colon): 15 µM
GI50 (SK-MEL-2 melanoma): 2.21 µM
TGI (SK-MEL-2 melanoma): 5.75 µM
GI50 (SNB-19 CNS): 3.97 µM
TGI (SNB-19 CNS): 77.3 µM
GI50 (MDA-MB-435): 2.89 µM
TGI (MDA-MB-435): 8.95 µM
GI50 (HL-60(TB) leukemia): 2.39 µM
TGI (HL-60(TB) leukemia): 6.57 µM
GI50 (U251 CNS): 2 µM
TGI (U251 CNS): 4.39 µM
GI50 (PC-3 prostate): 2.5 µM
GI50 (ACHN renal): 3.67 µM
TGI (ACHN renal): 14.9 µM
GI50 (CAKI-1 renal): 2.31 µM
TGI (CAKI-1 renal): 7.14 µM
GI50 (MALME-3M melanoma): 2.06 µM
TGI (MALME-3M melanoma): 5.23 µM
GI50 (SK-OV-3 ovarian): 2.13 µM
TGI (SK-OV-3 ovarian): 6.06 µM
GI50 (HS 578T breast): 3.1 µM
TGI (HS 578T breast): 21.6 µM
GI50 (OVCAR-3 ovarian): 3.15 µM
TGI (OVCAR-3 ovarian): 11.5 µM
GI50 (T-47D breast): 2.29 µM
TGI (T-47D breast): 7.14 µM
GI50 (OVCAR-8 ovarian): 2.85 µM
TGI (OVCAR-8 ovarian): 9.3 µM
GI50 (IGROV1 ovarian): 5.33 µM
TGI (IGROV1 ovarian): 25 µM
GI50 (EKVX NSCLC): 2.45 µM
TGI (EKVX NSCLC): 8.32 µM
GI50 (KM12 colon): 3.75 µM
TGI (KM12 colon): 23.5 µM
GI50 (SF-539 CNS): 3.46 µM
TGI (SF-539 CNS): 11.9 µM
GI50 (A549 NSCLC): 2.97 µM
TGI (A549 NSCLC): 12.3 µM
GI50 (SF-268 CNS): 5.82 µM
TGI (SF-268 CNS): 48.6 µM
